IC50 data for 1 molecule are collected here from paper PMC3998017, “Single cell imaging of Bruton's Tyrosine Kinase using an irreversible inhibitor” (Scientific Reports, 2014).

This experiment concerns the target T1, Bruton's tyrosine kinase (BTK) (Homo sapiens, UniProt Q06187).
T1 construct: purified BTK (76 kDa)
Briefly: IC50 on purified BTK enzyme; also covalent labelling of purified BTK and of BTK in Toledo cells by denaturing gel fluorescence, blocked by Ibrutinib. In kind it is biochemical.

T1 sequence (Q06187 2-659): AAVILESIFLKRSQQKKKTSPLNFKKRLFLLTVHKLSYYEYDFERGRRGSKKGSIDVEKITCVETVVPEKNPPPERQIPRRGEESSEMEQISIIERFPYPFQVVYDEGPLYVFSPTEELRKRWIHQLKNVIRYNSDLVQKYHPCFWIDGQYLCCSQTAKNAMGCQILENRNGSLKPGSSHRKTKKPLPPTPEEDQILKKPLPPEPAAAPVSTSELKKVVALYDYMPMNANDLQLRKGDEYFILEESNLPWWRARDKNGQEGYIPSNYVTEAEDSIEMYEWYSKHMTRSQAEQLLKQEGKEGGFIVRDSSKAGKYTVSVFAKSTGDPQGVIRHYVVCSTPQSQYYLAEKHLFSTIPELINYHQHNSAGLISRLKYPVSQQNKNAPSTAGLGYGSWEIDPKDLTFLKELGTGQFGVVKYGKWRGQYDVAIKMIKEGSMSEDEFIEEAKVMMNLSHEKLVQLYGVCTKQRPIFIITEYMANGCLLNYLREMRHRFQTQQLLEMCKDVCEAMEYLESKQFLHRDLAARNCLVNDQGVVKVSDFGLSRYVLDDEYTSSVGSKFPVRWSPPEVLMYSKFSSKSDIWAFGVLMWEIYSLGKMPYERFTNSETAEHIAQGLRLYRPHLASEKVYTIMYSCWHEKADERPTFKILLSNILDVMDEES

With `Cc1cc(C)n2c1C=C1C=CC(CCC(=O)NC/C=C/C(=O)N3CCC[C@@H](n4nc(-c5ccc(Oc6ccccc6)cc5)c5c(N)ncnc54)C3)=[N+]1[B-]2(F)F` [compound 7, (R,E)-3-(3-((4-(3-(4-amino-3-(4-phenoxyphenyl)-1H-pyrazolo[3,4-d]pyrimidin-1-yl)piperidin-1-yl)-4-oxobut-2-en-1-yl)amino)-3-oxopropyl)-5,5-difluoro-7,9-dimethyl-5H-dipyrrolo[1,2-c:2′,1′-f][1,3,2]diazaborinin-4-ium-5-uide], the IC50 (usually the point on the concentration scale where inhibition reaches its midpoint) is around 200 nM.
